Laboratory results: ChEMBL document CHEMBL1201862, “PubChem BioAssay data set” (2004)
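In this assay, cells in 96-well plates receive the compound at five concentrations for 48 hours. Endpoints are linearly interpolated between the surrounding concentrations. GI50 is the concentration that inhibits growth by half.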 The source made the active and inactive calls. Rule as the data show it: active = GI50 up to about 1.1 µM and inactive = higher.

Legend:
Assay in all cases: DTP human tumour cell line panel, 48 h
[1] = test system: Malme-3M
[2] = test system: NCI-H522
[3] = test system: HOP-62
[4] = test system: NCI-H226
[5] = test system: SF-268
[6] = test system: BT-549
[7] = test system: MDA-MB-231
[8] = test system: HCT-116
[9] = test system: MDA-N
[10] = test system: HOP-92
[11] = test system: SNB-75
[12] = test system: U-251
[13] = test system: NCI-H23
[14] = test system: UACC-257
[15] = test system: SK-MEL-28
[16] = test system: T47D
[17] = test system: OVCAR-8
[18] = test system: HL-60
[19] = test system: UACC-62
[20] = test system: A549

Row | Structure (SMILES) | GI50 [1] | GI50 [2] | GI50 [3] | GI50 [4] | GI50 [5] | GI50 [6] | GI50 [7] | GI50 [8] | GI50 [9] | GI50 [10] | GI50 [11] | GI50 [12] | GI50 [13] | GI50 [14] | GI50 [15] | GI50 [16] | GI50 [17] | GI50 [18] | GI50 [19] | GI50 [20]
1 | O=c1ccn(C/C=C/c2ccccc2)c(=S)n1C/C=C/c1ccccc1 | 89.1 µM (inactive) | 67.8 µM (inactive) | > 100 µM (inactive) | > 100 µM (inactive) | > 100 µM (inactive) | 68.2 µM (inactive) | > 100 µM (inactive) | 44.6 µM (inactive) | 47.4 µM (inactive) | > 100 µM (inactive) | > 100 µM (inactive) | 77.1 µM (inactive) | 33.3 µM (inactive) | 32.8 µM (inactive) | > 100 µM (inactive) | 20.9 µM (inactive) | > 100 µM (inactive) | 13.8 µM (inactive) | > 100 µM (inactive) | 17.7 µM (inactive)
2 | C=C(Cl)/C(=C/Cl)CCC(Br)C(C)(C)Cl.C=C(Cl)/C(=C\Cl)CCC(Br)C(C)(C)Cl (stereo not given) | > 10 µM (inactive) | 9.77 µM (inactive) | > 10 µM (inactive) | > 10 µM (inactive) | > 10 µM (inactive) | > 10 µM (inactive) | > 10 µM (inactive) | > 10 µM (inactive) | > 10 µM (inactive) | > 10 µM (inactive) | > 10 µM (inactive) | > 10 µM (inactive) | > 10 µM (inactive) | > 10 µM (inactive) | > 10 µM (inactive) | > 10 µM (inactive) | > 10 µM (inactive) | 3.56 µM (inactive) | > 10 µM (inactive) | > 10 µM (inactive)
3 | COc1cc([C@@H]2c3cc4c(cc3[C@@H](OC3OC5COC(C)OC5C(O)C3O)[C@H]3COC(=O)[C@H]23)OCO4)cc(OC)c1O (stereo not given in full) | 9.44 µM (inactive) | 6.03 µM (inactive) | 1.97 µM (inactive) | 3.44 µM (inactive) | 7.6 µM (inactive) | 2.4 µM (inactive) | 1.7 µM (inactive) | 13.6 µM (inactive) | 0.968 µM (active) | 9.2 µM (inactive) | 12.1 µM (inactive) | 3.3 µM (inactive) | 6.01 µM (inactive) | 37.2 µM (inactive) | 22.1 µM (inactive) | 0.897 µM (active) | 11.3 µM (inactive) | 0.807 µM (active) | 6.11 µM (inactive) | 3.61 µM (inactive)
4 | Nc1ccc(S(=O)(=O)Nc2nc3ccccc3nc2N2CCCCC2)cc1 | 71.9 µM (inactive) | 31.1 µM (inactive) | > 100 µM (inactive) | > 100 µM (inactive) | > 100 µM (inactive) | 23.8 µM (inactive) | > 100 µM (inactive) | 80.7 µM (inactive) | > 100 µM (inactive) | 53 µM (inactive) | 24.3 µM (inactive) | 68.2 µM (inactive) | 36.1 µM (inactive) | > 100 µM (inactive) | 92.9 µM (inactive) | 41.6 µM (inactive) | 61.8 µM (inactive) | 46.3 µM (inactive) | > 100 µM (inactive) | 48.1 µM (inactive)
5 | Cc1cc(C)c2c(=N)c3ccccc3n(CCCCCCn3c4ccccc4c(=N)c4c(C)cc(C)nc43)c2n1 | 1.63 µM (inactive) | 1.39 µM (inactive) | 0.598 µM (active) | 1.66 µM (inactive) | 1.56 µM (inactive) | 1.56 µM (inactive) | 0.447 µM (active) | 0.18 µM (active) | 1.78 µM (inactive) | 1.58 µM (inactive) | 0.628 µM (active) | 0.252 µM (active) | 1.4 µM (inactive) | 1.64 µM (inactive) | 1.28 µM (inactive) | 1.92 µM (inactive) | 1.68 µM (inactive) | 0.28 µM (active) | 1.77 µM (inactive) | 1.63 µM (inactive)
6 | c1ccc2c[n+](CCCCCCCCCC[n+]3ccc4ccccc4c3)ccc2c1 | > 10 µM (inactive) | 4.17 µM (inactive) | > 10 µM (inactive) | > 3.34 µM (inactive) | > 10 µM (inactive) | 2.11 µM (inactive) | > 10 µM (inactive) | > 10 µM (inactive) | > 10 µM (inactive) | > 10 µM (inactive) | 3.68 µM (inactive) | > 8.59 µM (inactive) | 1 µM (active) | 3.48 µM (inactive) | 7.43 µM (inactive) | > 10 µM (inactive) | > 10 µM (inactive) | > 10 µM (inactive) | > 10 µM (inactive) | 0.585 µM (active)
7 | COc1ccc2c(-c3csc(-c4c[nH]c5ccccc45)n3)c[nH]c2c1 | 4.95 µM (inactive) | 4.04 µM (inactive) | 16.8 µM (inactive) | 9.4 µM (inactive) | 4.14 µM (inactive) | 11.8 µM (inactive) | 5.2 µM (inactive) | 3.68 µM (inactive) | 8.73 µM (inactive) | 7.46 µM (inactive) | 22 µM (inactive) | 5.19 µM (inactive) | 11.6 µM (inactive) | 12.7 µM (inactive) | 14.6 µM (inactive) | 6.32 µM (inactive) | 7.85 µM (inactive) | 4.66 µM (inactive) | 11.5 µM (inactive) | 4.98 µM (inactive)
8 | Cc1nn(C(=O)c2ccc(Cl)cc2)c2c1C(c1ccc(O)cc1)SC(=N)N2 (stereo not given) | > 10 µM (inactive) | > 10 µM (inactive) | > 10 µM (inactive) | > 10 µM (inactive) | > 10 µM (inactive) | > 10 µM (inactive) | > 10 µM (inactive) | > 10 µM (inactive) | > 10 µM (inactive) | > 10 µM (inactive) | > 10 µM (inactive) | > 10 µM (inactive) | > 10 µM (inactive) | > 10 µM (inactive) | > 10 µM (inactive) | > 10 µM (inactive) | > 10 µM (inactive) | > 10 µM (inactive) | > 10 µM (inactive) | > 10 µM (inactive)
9 | CN(C)CCC(C#N)(c1ccccc1)c1ccccc1 | 35.1 µM (inactive) | 96.6 µM (inactive) | > 100 µM (inactive) | > 100 µM (inactive) | > 100 µM (inactive) | > 100 µM (inactive) | 47.5 µM (inactive) | 72.6 µM (inactive) | 45 µM (inactive) | 12.3 µM (inactive) | 52.6 µM (inactive) | 88.9 µM (inactive) | > 100 µM (inactive) | 24.4 µM (inactive) | 23.1 µM (inactive) | 97.9 µM (inactive) | 96.2 µM (inactive) | 6.62 µM (inactive) | 73.3 µM (inactive) | > 100 µM (inactive)
